Literature values, collected in EP0353388A2, “Floor treatment product” (DYNA-5, INC., priority 1988, dated 1990).

Conditions: first dissociation constant of the acid

Row | SMILES | first pK value (pK^I)
1 | O=C(O)C(=O)O [oxalic acid] | 1.25
2 | O=C(O)CN(CCN(CC(=O)O)CC(=O)O)CC(=O)O [ethylenediaminetetraacetic acid] | 2.00
